Experimental findings from US12162858B2, “Quinoline derivatives as inhibitors of AXL/MER RTK and CSF1R” (QURIENT CO., LTD., priority 2018, dated 2024) are described below.

Some results are limits rather than exact numbers.

This experiment deals with T1, Axl (Ba/F3 cells) (Homo sapiens, UniProt P30530).
T1 sequence (P30530 1-894): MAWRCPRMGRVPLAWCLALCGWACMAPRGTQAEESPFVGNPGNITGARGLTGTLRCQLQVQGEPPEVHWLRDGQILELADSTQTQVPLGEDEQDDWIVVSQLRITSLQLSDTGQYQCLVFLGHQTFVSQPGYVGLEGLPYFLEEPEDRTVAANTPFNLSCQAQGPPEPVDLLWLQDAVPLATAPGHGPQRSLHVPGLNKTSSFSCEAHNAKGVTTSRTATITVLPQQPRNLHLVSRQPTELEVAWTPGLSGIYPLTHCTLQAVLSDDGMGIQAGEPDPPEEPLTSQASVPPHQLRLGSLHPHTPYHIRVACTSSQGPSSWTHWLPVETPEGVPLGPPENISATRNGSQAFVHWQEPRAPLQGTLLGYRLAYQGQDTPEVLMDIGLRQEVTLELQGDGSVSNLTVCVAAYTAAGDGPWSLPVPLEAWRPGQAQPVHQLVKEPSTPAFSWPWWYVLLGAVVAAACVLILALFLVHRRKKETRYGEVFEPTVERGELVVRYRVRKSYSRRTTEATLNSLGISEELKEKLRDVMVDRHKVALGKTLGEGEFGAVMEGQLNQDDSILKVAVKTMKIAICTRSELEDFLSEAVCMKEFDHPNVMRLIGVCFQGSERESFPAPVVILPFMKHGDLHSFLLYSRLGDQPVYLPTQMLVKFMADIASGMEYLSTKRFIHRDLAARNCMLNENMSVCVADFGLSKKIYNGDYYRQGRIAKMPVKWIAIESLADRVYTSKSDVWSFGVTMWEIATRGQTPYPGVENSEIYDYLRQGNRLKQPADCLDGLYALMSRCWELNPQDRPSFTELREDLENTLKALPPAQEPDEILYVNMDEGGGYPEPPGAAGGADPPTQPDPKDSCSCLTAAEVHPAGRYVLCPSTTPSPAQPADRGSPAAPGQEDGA
Description: BaF3 viability assay, Axl-dependent cells. The class given is cell-based. As to conditions: read-out: Cellular Axl activity by Ba/F3 assay (IC50). From the text: In this system, IL-3-dependent Ba/F3 cells are modified to express an activated recombinant kinase (in the present case Axl, Mer and CSF1R). Following removal of IL-3, the modified cells are dependent on the activity of the recombinant kinase for survival and proliferation. Inhibition of such kinase(s) through test compounds reduces survival and proliferation of the cells.
Cell lines were maintained in growth media (GM) consisting of RPMI 1640 supplemented with 10% FBS. Cells in logarithmic-phase growth were harvested and 5,000 cells were distributed into each well of a 384-well plate in 50 μl GM. Parental cells (or experimental assays where specified) were further supplemented with 2 ng/ml IL-3 to support cell growth and survival. Fifty nanoliters of the indicated reference standard or experimental compound were added to appropriate wells (in duplicate) and the cells were cultured for 48 h at 37° C./5% CO2. Viability was determined by adding 10 μl Cell Titer Glo and measuring luminescence, which is reported as relative light units (RLU) measured in counts per second. The following calculations and formulas are used for data analysis using GraphPad Prism software: The curve fitting was made using the Dose response curves-Inhibition.
On to `COc1cc2nccc(Oc3ccc(NC(=O)c4nn(C[C@H](C)O)cc4OCC(F)(F)F)nc3)c2cc1OC` [Compound 30], for which the GI50 was below 1 µM.

With `COc1cc2nccc(Oc3ccc(NC(=O)c4nn(CCCO)cc4OCC(F)(F)F)nc3)c2cc1OC` [Compound 18], the GI50 is below 1 µM.

With `CCCn1cc(OC(C)C)c(C(=O)Nc2ccc(Oc3ccnc4cc(OC)c(OC(F)(F)F)cc34)c(F)c2)n1` [Compound 35], the GI50 was at least 10 µM.

Turning to `CCCn1cc(OCCC(O)CO)c(C(=O)Nc2ccc(Oc3ccnc4cc(OC)c(OC)cc34)cn2)n1` (stereo not drawn) [Compound 15], the GI50 is below 1 µM.

With `COc1cc2nccc(Oc3ccc(NC(=O)c4nn(C[C@@H](C)O)cc4OCC(F)(F)F)nc3)c2cc1OC` [Compound 29], the GI50 was below 1 µM.

In the case of `COc1cc2nccc(Oc3ccc(NC(=O)c4nn(CC(C)O)cc4OCC(F)(F)F)nc3)c2cc1OC` (stereo not drawn) [Compound 17], the GI50 is below 1 µM.
